Some test systems named below: CCRF-CEM; COLO 205; EKVX; HCC 2998; HCT-116; HOP-92; MDA-N; NCI-H23; SF-268; SF-295; SN12C; SNB-75; TK-10; UACC-62; UO-31; RXF 393.
Test in all cases: NCI anticancer screen, dose series, 48 h

The results in this text go back to ChEMBL document CHEMBL1201862, “PubChem BioAssay data set” (2004).

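Step 1: Grow cells in 96-well plates. Step 2: Expose to compound for 48 hours at 5 concentrations. Step 3: Interpolate endpoints linearly; if unreached, use highest concentration. GI50 = concentration required for 50% inhibition of growth.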 The source made the active and inactive calls. No stated cut-off is given here; in the data, active = GI50 up to about 1.1 µM and inactive = higher. Where a SMILES comes first, the peptide text is derived from it. [ ]: non-standard residue; d: D form. The star is where a group is joined. Octanoyl = CCCCCCCC(=O)*; Aib = CC(C)(N)C(=O)O; tBu = CC(C)(C)*

Take `CCCCCCCCCCCC1NC(N)=NC(CCCO)=C1C(=O)OC` (configuration not stated): the GI50 was 1.59 µM (inactive) with CCRF-CEM; 1.88 µM (inactive) in the assay on COLO 205; 16.1 µM (inactive) in the assay on EKVX; 2.35 µM (inactive) in the assay on HCC 2998; 1.92 µM (inactive) in the assay on HCT-116; 3.54 µM (inactive) with HOP-92. Moreover, the GI50 with MDA-N was 2.44 µM (inactive); in the assay with NCI-H23, 2.08 µM (inactive); with SF-268 it was 2.48 µM (inactive); in the assay with SF-295, 2.93 µM (inactive); in the assay on SN12C, 2.47 µM (inactive); in the assay on SNB-75, 2.79 µM (inactive). For the same compound, the GI50 in the assay with TK-10 is 2.23 µM (inactive); in the assay with UACC-62 it was 4.38 µM (inactive); in the assay on UO-31 it was 15.3 µM (inactive).
Take `CC(=C\c1ccccc1)/C=C(\C#N)C(N)=O`: the GI50 in the assay with COLO 205, with EKVX, in the assay on HCC 2998, with MDA-N, in the assay with RXF 393 and in the assay on SF-268 was > 10 µM (inactive) throughout. The GI50 with SF-295, in the assay on SN12C, in the assay on SNB-75, with TK-10 and with UO-31 was > 10 µM (inactive) each time.
For `Cn1nc(/C=C\C(=O)N2CC(CCl)c3c2cc(N)c2ccccc32)cc1/C=C/C(=O)N1CC(CCl)c2c1cc(N)c1ccccc21` (configuration not stated), the GI50 in the assay on CCRF-CEM is < 0.01 µM (active); in the assay with COLO 205, < 0.01 µM (active); in the assay on EKVX, 0.0215 µM (active); in the assay on HCC 2998, < 0.01 µM (active); in the assay with HCT-116, < 0.01 µM (active); in the assay with MDA-N it was < 0.01 µM (active). Besides, the GI50 in the assay on NCI-H23, in the assay on RXF 393, in the assay with SF-268, in the assay with SF-295, with SN12C and in the assay on SNB-75 was < 0.01 µM (active) in each case. The GI50 in the assay on TK-10, with UACC-62 and in the assay on UO-31 was < 0.01 µM (active) in each case.
On to `COC(=O)C1CCC(=O)N1CN(C(C)=O)c1ccccc1Cl` (configuration not stated), for which the GI50 in the assay on COLO 205, with EKVX, with HCC 2998, with HCT-116, in the assay with HOP-92 and with MDA-N was > 100 µM (inactive) each time. Further, the GI50 with NCI-H23, with RXF 393, in the assay on SF-268, with SF-295, in the assay with SN12C and in the assay with SNB-75 was > 100 µM (inactive) throughout. Also, the GI50 in the assay with TK-10, in the assay with UACC-62 and in the assay with UO-31 was > 100 µM (inactive) in each case.
For `CC(=O)c1cccn1/C=C(\OC(=O)OC(C)(C)C)c1ccc[nH]1`, the GI50 with CCRF-CEM is 39.8 µM (inactive); in the assay with COLO 205, 89.7 µM (inactive); with EKVX, 25.5 µM (inactive); in the assay with HCC 2998, > 100 µM (inactive); with HCT-116, 41.3 µM (inactive); in the assay with MDA-N, 81.8 µM (inactive). Besides, the GI50 is 69.8 µM (inactive) in the assay with NCI-H23; 33.8 µM (inactive) in the assay on RXF 393; 77.3 µM (inactive) with SF-268; 39.4 µM (inactive) in the assay with SF-295; 96.8 µM (inactive) in the assay on SN12C; 8.24 µM (inactive) in the assay on SNB-75. Also, the GI50 is > 100 µM (inactive) with TK-10, 99.1 µM (inactive) in the assay on UACC-62 and 36.9 µM (inactive) in the assay with UO-31.
For the compound `O=C(COc1ccc(OCC(=O)N2C(=O)CC(=O)N(c3ccccc3)C2=S)cc1)N1C(=O)CC(=O)N(c2ccccc2)C1=S`, the GI50 in the assay with COLO 205 was 61.2 µM (inactive); with EKVX, > 100 µM (inactive); in the assay on HCC 2998, 97.3 µM (inactive); with HCT-116, 22.5 µM (inactive); with HOP-92 it was 52 µM (inactive); in the assay on MDA-N it was 68.7 µM (inactive). Further, the GI50 was 64.4 µM (inactive) in the assay on NCI-H23; 25.5 µM (inactive) in the assay on RXF 393; 43.2 µM (inactive) in the assay on SF-268; 56.6 µM (inactive) in the assay on SF-295; > 100 µM (inactive) with SN12C; > 100 µM (inactive) with SNB-75. Further, the results for the GI50 with TK-10, with UACC-62 and in the assay on UO-31 were > 100 µM (inactive), 32.2 µM (inactive) and 61.4 µM (inactive), respectively.
With `CN1C(=O)c2ccccc2NC(=O)C12O[C@@H]2c1ccccc1` (some centres not stated), the GI50 with CCRF-CEM, in the assay on COLO 205, with EKVX, with HCC 2998, in the assay with HCT-116 and in the assay with HOP-92 was > 100 µM (inactive) in each case. The GI50 in the assay on MDA-N is > 100 µM (inactive); in the assay on NCI-H23, > 100 µM (inactive); in the assay with SF-268, > 100 µM (inactive); with SF-295, > 100 µM (inactive); with SN12C, > 100 µM (inactive); in the assay with SNB-75, 62.8 µM (inactive). Besides, the GI50 in the assay on TK-10, in the assay with UACC-62 and with UO-31 was > 100 µM (inactive) throughout.
For the compound `Cc1cc(=O)oc2c3c(ccc12)OC(c1ccc(Br)cc1)CC3=O` (configuration not stated), the GI50 in the assay with CCRF-CEM is 2.21 µM (inactive); in the assay with COLO 205 it was 12.7 µM (inactive); with EKVX, 15.1 µM (inactive); in the assay with HCC 2998, 14.6 µM (inactive); in the assay on HCT-116, 10.3 µM (inactive); with MDA-N, 8.13 µM (inactive). The GI50 was 12.1 µM (inactive) in the assay on NCI-H23; 10.2 µM (inactive) with SF-268; 10.7 µM (inactive) in the assay with SF-295; 5.42 µM (inactive) in the assay on SN12C; 3.02 µM (inactive) in the assay on SNB-75; 13.7 µM (inactive) in the assay with TK-10. The GI50 was 7.98 µM (inactive) in the assay on UACC-62 and 10.3 µM (inactive) in the assay on UO-31.
Regarding `O=c1/c(=C/c2ccc(-c3ccc(Cl)cc3Cl)o2)sc2n1[C@@H](c1ccc(Cl)cc1)C=C(c1cc(F)c(Cl)cc1Cl)N=2`, the GI50 was 78.5 µM (inactive) in the assay with COLO 205; 12.8 µM (inactive) in the assay on HCC 2998; 37.9 µM (inactive) with HCT-116; 26.1 µM (inactive) with HOP-92; 53.8 µM (inactive) in the assay with MDA-N; 36.6 µM (inactive) in the assay with NCI-H23. The GI50 is 31.2 µM (inactive) with RXF 393; 36.1 µM (inactive) in the assay on SF-268; 53.2 µM (inactive) in the assay on SF-295; 76.4 µM (inactive) in the assay with SN12C; 63.4 µM (inactive) in the assay with SNB-75; 13.4 µM (inactive) in the assay on TK-10. Further, the GI50 in the assay with UACC-62 is 25 µM (inactive); with UO-31 it was 41.5 µM (inactive).
For the compound `CN(C)CCc1ccnc2nc(-c3ccc4ccccc4c3)cn12`, the GI50 in the assay on CCRF-CEM was 33.3 µM (inactive); with COLO 205, 33.3 µM (inactive); with EKVX, 38 µM (inactive); in the assay on HCC 2998, 18.5 µM (inactive); in the assay with HCT-116, 31.7 µM (inactive); in the assay on MDA-N, 29.6 µM (inactive). Also, the GI50 was 20.4 µM (inactive) in the assay with NCI-H23; 30.9 µM (inactive) in the assay with RXF 393; 23 µM (inactive) in the assay on SF-268; 88.7 µM (inactive) in the assay on SF-295; 26.8 µM (inactive) in the assay with SN12C; 15.7 µM (inactive) in the assay on TK-10. For the same compound, the GI50 is 44.5 µM (inactive) with UACC-62 and 52.6 µM (inactive) with UO-31.
As to `c1ccc2c(-c3cnc(-c4c[nH]c5ccccc45)cn3)c[nH]c2c1`, the GI50 with COLO 205 is 34.4 µM (inactive); in the assay on EKVX, 73.6 µM (inactive); in the assay on HCC 2998, 42.6 µM (inactive); in the assay on HCT-116, 5.2 µM (inactive); in the assay with HOP-92, 28.6 µM (inactive); in the assay with MDA-N it was 19.1 µM (inactive). Besides, the GI50 with NCI-H23 is 61.8 µM (inactive); in the assay with RXF 393, 26.7 µM (inactive); in the assay with SF-268, 50.6 µM (inactive); with SF-295, 20.2 µM (inactive); in the assay with SN12C, 31.4 µM (inactive); in the assay on SNB-75, 22.6 µM (inactive). In addition, the figures for the GI50 in the assay with TK-10, with UACC-62 and with UO-31 were 47.1 µM (inactive), 32.8 µM (inactive) and 39.5 µM (inactive), respectively.
With `Cc1[nH]n(-c2nc3c(c(=O)[nH]2)CCCC3)c(=O)c1CCO`, the GI50 with CCRF-CEM, in the assay with COLO 205, in the assay on EKVX, with HCC 2998, in the assay on HCT-116 and in the assay with MDA-N was > 100 µM (inactive) each time. Also, the GI50 in the assay with NCI-H23, in the assay on RXF 393, in the assay with SF-268, in the assay with SF-295, in the assay with SN12C and in the assay on TK-10 was > 100 µM (inactive) each time. Besides, the GI50 with UACC-62 and with UO-31 was > 100 µM (inactive) throughout.
As to `CCCCCCCC(=O)NC(C)(C)C(=O)NC(COC(C)(C)C)C(=O)NC(CC(C)C)C(=O)NC(C)(C)C(=O)NC(COC(C)(C)C)C(=O)NC(COC(C)(C)C)C(=O)NC(CC(C)C)C(=O)NC(C)(C)C(=O)NC(COC(C)(C)C)C(=O)NC(C(=O)NC(CC(C)C)C(=O)OC)C(C)CC` (configuration not stated) (Octanoyl-[Aib]S(tBu)L[Aib]S(tBu)S(tBu)L[Aib]S(tBu)IL-OMe; configuration not given here), the GI50 in the assay with CCRF-CEM is 4.79 µM (inactive); in the assay on COLO 205, 6.55 µM (inactive); in the assay with EKVX, 6.22 µM (inactive); with HCT-116, 7.18 µM (inactive); in the assay on HOP-92, 4.43 µM (inactive); with MDA-N it was 8.65 µM (inactive). Besides, the GI50 in the assay on NCI-H23 is 4.7 µM (inactive); with RXF 393 it was 3.57 µM (inactive); in the assay on SF-268, 9.95 µM (inactive); in the assay with SF-295, 6.4 µM (inactive); in the assay with SN12C, 7.57 µM (inactive); in the assay on SNB-75, 5.24 µM (inactive). In addition, the GI50 is 7.14 µM (inactive) with TK-10, 7.8 µM (inactive) in the assay on UACC-62 and 14.6 µM (inactive) in the assay on UO-31.
